The term melting point denotes the temperature of the solid-liquid transition.

The structures appear in SMILES notation. Several values for one entry are separate records, joined by “and”; a condition that tells them apart may be missing. Equal values may be shown once.

In the case of `CCOC(=O)/C(C#N)=N\Nc1ccccc1[N+](=O)[O-]` [Ethyl (2Z)-cyano[(2-nitrophenyl)hydrazono]acetate], the melting point came to 103 °C.
`O=C(O)c1ccc(Br)s1` [5-bromothiophene-2-carboxylic acid] had a melting point of 140 °C.
`COC(=O)c1ccccc1O` [methyl_salicylate] registered a melting point of -7 °C.
With `N#CCc1ccccc1C#N` [o-cyano_phenylacetonitrile], the melting point is 80 °C.
Turning to `Clc1cccc(Cl)c1Cl` [1,2,3-trichlorobenzene], the melting point is 55 °C and 53 °C (2×).
`C[C@H](CCC(=O)O)[C@H]1CC[C@H]2[C@@H]3[C@@H](O)C[C@@H]4C[C@H](O)CC[C@]4(C)[C@H]3CC[C@]12C` [ursodeoxycholic acid] came in with a melting point of 203 °C.
`O=C(O)c1ccc2c(c1)OCO2` [piperonylic acid] yielded a melting point of 233 °C.
`c1ccc(-c2c3ccccc3c(-c3ccccc3)c3ccccc23)cc1` [9,10-diphenylanthracene] showed a melting point of 251 °C.
The compound `OCc1ccccc1Cl` [2-chlorobenzyl alcohol] showed a melting point of 70 °C.
Next, `COCCOCCOC` [diethylene glycol dimethyl ether]: -64 °C; `O=C2\C=C(/N(N2c1ccccc1)C)C` [antipyrine]: 111 °C and 112 °C and 109 °C; `CNc1ccc(C(=O)O)cc1` [4-(methylamino)benzoic acid]: 159 °C.
`CC1C(=O)CCCC1=O` [2-methylcyclohexane-1,3-dione]: the melting point was 206 °C.
Regarding `Clc1ncnc2sc3c(c12)CCC3`, the melting point was 105 °C.
Next, `C1CSCCSCCNCCSCCSCCN1` [1,4,10,13-tetrathia-7,16-diazacyclooctadecane]: 130 °C; `CCC(=O)O[C@](Cc1ccccc1)(c1ccccc1)[C@H](C)CN(C)C` [propoxyphene]: 75.5 °C.
Consider `O=C(O)c1cc(O)ccc1O` [2,5-dihydroxybenzoic_acid], for which the melting point is 205 °C.
Under `Cc1cc(Br)ncc1B(O)O` [6-bromo-4-methylpyridine-3-boronic acid] stands 164 °C; under `O=C(O)CC(O)(CC(=O)O)C(=O)O` [citric acid anhydrous], 153 °C; under `O=Cc1ccc(B(O)O)cc1` [4-formylbenzeneboronic acid], 263 °C.
For `CC(Cc1ccccc1)NCCC(c1ccccc1)c1ccccc1` (configuration not stated) [Prenylamine], the melting point stood at 36.5 °C.
Regarding `Cc1ccc(C)c(/C=C/C(=O)O)c1` [2,5-dimethylcinnamic acid], the melting point turned out to be 130 °C.
Compound `Cc1ncc([N+](=O)[O-])n1CCO` [2-(2-Methyl-5-nitro-1H-imidazol-1-yl)ethanol] yielded a melting point of 160 °C.
`CC(=O)c1ccc2ccccc2c1` [2-acetylnaphthalene]: the melting point came to 54 °C.
Turning to `Cc1ccc([N+](=O)[O-])cc1N` [2-Methyl-5-nitroaniline], the melting point stood at 108 °C.
Under `Oc1ccccc1I` [2-Iodophenol] stands 38.5 °C.
Turning to `Oc1cccc(Cl)c1Cl` [2,3-dichlorophenol], the melting point stood at 59 °C.
In turn, `O=C(O)c1ccc(Cl)cc1Cl` [2,4-dichlorobenzoic acid] registered a melting point of 162 °C.
Next, `Cn1ccc(=O)n(C)c1=O` [1,3-dimethyluracil]: 121 °C; `CCOC(=O)Cc1c(C)n(C(=O)c2ccc(Cl)cc2)c2ccc(OC)cc12` [indomethacin ethyl ester]: 96 °C.
In turn, `COc1ccc(C=O)cc1OC` [veratraldehyde] showed a melting point of 44 °C.
As for `O=Cc1ccc(Cl)cc1` [p-chlorobenzaldehyde], the melting point worked out at 46 °C.
Take `CCN(C)C` [N,N-dimethylethylamine]: the melting point was -140 °C.
Next, `Nc1c(Br)cccc1Br` [2,6-dibromoaniline]: 81 °C; `CCCCOc1ccccc1` [butyl_phenyl_ether]: -19 °C; `O=Cc1ccc2c(c1)OCO2` [piperonal]: 37 °C.
Take `CCOC(=O)OCC` [diethyl carbonate]: the melting point was -43 °C.
The compound `CC(C)(C)O` [tert-butyl alcohol, anhydrous] showed a melting point of 25 °C.
As for `O=C(/C=C/C=C/c1ccccc1)/C=C/C=C/c1ccccc1` [1,9-diphenyl-1,3,6,8-nonatetraen-5-one], the melting point came out at 142 °C.
The compound `Oc1cc(Cl)c(-c2c(Cl)cc(Cl)cc2Cl)c(Cl)c1O` [PCB-155] registered a melting point of 113 °C.
Compound `COC(=O)OC` [dimethyl_carbonate] showed a melting point of 3 °C.
Take `CCOC(=O)CNC(=O)c1ccccc1` [ethyl hippurate]: the melting point came out at 59 °C.
Under `COC1(OC)CCC2(C)C3CCC4(C)CCCC4(O)C3CCC2(C)C1` (configuration not stated) [3,3-dimethoxy-5-methylandrostan-14-ol] stands 147 °C; under `N#Cc1cc(Cl)ccc1Cl` [2,5-dichlorobenzonitrile], 130 °C; under `O=C(Cl)CCCCl` [4-chlorobutyryl chloride], -49 °C.
Regarding `CNN` [Methylhydrazine], the melting point is -80 °C.
In the case of `c1ccc2c3c([nH]c2c1)CCCC3` [1,2,3,4-tetrahydrocarbazole], the melting point was determined as 119 °C.
The compound `Cc1ccc(Cl)c(O)c1` [2-chloro-5-methylphenol] displayed a melting point of 47 °C.
`Nc1ccc(I)cc1` [p-iodoaniline] returned a melting point of 63 °C.
Turning to `CCCCCCC(C)C` [2-methyloctane], the melting point is -80 °C.
As to `Cn1c(C=O)nc2ccccc21` [1-methylbenzimidazole-2-carboxaldehyde], the melting point amounted to 120 °C.
Consider `N#CCCc1ccccc1` [3-phenylpropionitrile], for which the melting point was -2 °C.
As to `CC(C)c1ncc([N+](=O)[O-])n1C` [Ipronidazole], the melting point was determined as 61 °C.
As for `CC(=O)C1=C2C=CCC=C2N=C1` [3-Acetylindole], the melting point was found to be 194 °C.
In turn, `O=[N+]([O-])c1cc(I)c(O)c(I)c1` [2,6-Diiodo-4-nitrophenol] yielded a melting point of 157 °C.
`CCNc1nsc2ccccc12` [etisazol] showed a melting point of 78 °C.
Under `C[C@@H]1O[C@@H](O)[C@@H](O)[C@H](O)[C@@H]1O` [L-fucose] stands 139 °C.
`Cc1ccc(/N=N/c2ccc(N(C)C)cc2)cc1` [4-dimethylamino-4'-methylazobenzene] gave a melting point of 166 °C.
On to `Cc1cccc(C(N)=O)c1` [m-toluamide], for which the melting point was found to be 96 °C.
Consider `CC(C)(C)CCl` [neopentyl chloride], for which the melting point is -20 °C.
`CC(=O)NS(=O)(=O)c1ccc(N)cc1` [Sulfacetamide] returned a melting point of 183 °C.
`O=C(Nc1ccccc1)Nc1nnc(C(F)(F)F)s1` [N-phenyl-N'-[5-(trifluoromethyl)-1,3,4-thiadiazol-2-yl]urea]: the melting point is 150 °C.
As to `Cc1ncc([N+](=O)[O-])n1CCO` [Metronidazole], the melting point was determined as 160 °C.
Next, `Oc1ccnc2ccccc12` [4-hydroxyquinoline]: 203 °C; `Cc1cccc(O)c1C` [2,3-dimethylphenol]: 72 °C; `Oc1ccc2ccccc2c1` [2-naphthol]: 123 °C and 122 °C.
Consider `C=C(C)CC(C)(C)C` [2,4,4-Trimethylpent-1-ene], for which the melting point was -94 °C.
Consider `O=C(O)CS` [Sulfanylacetic acid], for which the melting point is -16.5 °C.
`CN(C)C(=S)Sc1ccc2ccccc2c1` [naphthalen-2-yl dimethyldithiocarbamate]: the melting point was found to be 114 °C.
Next, `CC(=O)c1cccc(O)c1` [3'-hydroxyacetophenone]: 95 °C.
Turning to `CC(=O)S[C@@H]1CC2=CC(=O)CC[C@]2(C)[C@H]2CC[C@@]3(C)[C@@H](CC[C@@]34CCC(=O)O4)[C@H]12` [spironolactone], the melting point was found to be 134 °C.
Regarding `C=Cc1ccc([N+](=O)[O-])cc1` [p-nitrostyrene], the melting point was determined as 29 °C.
As for `C#CCON1C(=O)c2ccccc2C1=O` [N-propargyloxyphthalimide], the melting point turned out to be 151 °C.
Turning to `Cc1nc(N)ccc1C#N` [6-amino-3-cyano-2-methylpyridine], the melting point was 165 °C.
`OCc1ccccc1O[C@@H]1O[C@H](CO)[C@@H](O)[C@H](O)[C@H]1O` [D-salicin] gave a melting point of 199 °C.
The compound `O=[N+]([O-])c1cccc(O)c1` [3-nitrophenol] showed a melting point of 96 °C.
Compound `CCCCCCCN` [1-aminoheptane] displayed a melting point of -18 °C.
On to `O=C(O)c1ccc(O)cc1` [4-hydroxybenzoic acid], for which the melting point is 214 °C and 215 °C.
Turning to `Cn1c(=O)c2c(ncn2C)n(C)c1=O` [Caffeine], the melting point is 238 °C.
`Clc1cccc2ccccc12` [1-chloronaphthalene] came in with a melting point of -8 °C.
Compound `CN(C)C=O` [dimethylformamide] displayed a melting point of -61 °C.
On to `CCCCCCCCCCCCCCCC` [N-hexadecane], for which the melting point stood at 18 °C.
The compound `c1ccc(Nc2ccccc2)cc1` [N-Phenylaniline] displayed a melting point of 53 °C.
Consider `CCCCCCC#N` [heptanenitrile], for which the melting point was -64 °C.
`CCCCC` [pentane] gave a melting point of -130 °C.
In the case of `Cc1cc(CO)c(O)c(CO)c1` [2,6-bis(hydroxymethyl)-p-cresol], the melting point worked out at 123 °C.
Regarding `C[C@@H](O)[C@H](N)C(=O)O` [L-Threonine], the melting point worked out at 256 °C.
Next, `C1CCC(C2CCCCC2)CC1` [dicyclohexyl]: 4 °C; `CCOC(=O)c1ccc(N=C=O)cc1` [4-(ethoxycarbonyl)phenyl isocyanate]: 30 °C.
With `O=C(Nc1ccc([N+](=O)[O-])cc1Cl)c1cc(Cl)ccc1O` [5-Chloro-N-(2-chloro-4-nitrophenyl)-2-hydroxybenzamide], the melting point was 223 °C.
`C=CCCC` [Pent-1-ene] registered a melting point of -165 °C.
`COC(=O)c1ccc2[nH]nnc2c1` [methyl 1h-benzotriazole-5-carboxylate] had a melting point of 174 °C.

The values above are taken from the Bradley open melting point set (2014).
